The results in this text go back to article PMC9029323, “In Silico Identification of Novel Inhibitors Targeting the Homodimeric Interface of Superoxide Dismutase from the Dental Pathogen Streptococcus mutans” (Antioxidants, 2022).

A word on the IC50: it is the concentration needed to halve the response being measured. As a reminder, the inhibition is the percentage by which the read-out fell short of the control.

For assay [1], the target named is T1, Cu/ZnSOD from bovine erythrocytes (Bos taurus, UniProt P00442).
T1 construct: the Cu/Zn-SOD from bovine erythrocytes (cat. 574594) were purchased from Sigma–Aldrich; purchased Sigma–Aldrich 574594; host or cells: bovine erythrocytes
As to the kind of experiment: SOD activity assay with Cu/Zn-SOD. Format: biochemical.
Description: Purified recombinant forms of SmSOD and StSOD were obtained through a heterologous expression system constituted by the Escherichia coli BL21(DE3) strain transformed with appropriate expression vectors, vSmSOD [11] or vStSOD [12]. These pET-22b(+)- or pET-28b(+)-derived plasmids led to the production of recombinant forms of SmSOD or StSOD, respectively fused to a His-tail, useful for their one-step purification by affinity chromatography, as previously described [11, 12]. The improvement of Mn uptake by SmSOD was realised as previously described [11, 12, 13]. The resulting metal (Fe and Mn) content in the cambialistic enzyme was determined by graphite furnace atomic absorption spectrometry with a Shimadzu ACS-6100 auto sampler [46]. Fe-SOD from Escherichia coli (cat. SRP6107) and the Cu/Zn-SOD from bovine erythrocytes (cat. 574594) were purchased from Sigma–Aldrich. A recombinant form of the eukaryal Mn–SOD from rat mitochondria was prepared as previously described [19]. Protein concentration was determined by the Bradford method, using bovine serum albumin as standard [47]. […] One unit of SOD activity was defined as the amount of enzyme that caused 50% inhibition of cytochrome c reduction.

Another assay addresses T2, SmSOD (Streptococcus mutans serotype c, UniProt P09738).
T2 construct: His-tail; made in house; host or cells: Escherichia coli BL21(DE3), vector vSmSOD (pET-22b(+)-derived)
As to the kind of experiment: Gel electrophoresis of SmSOD under not denaturing conditions. The conditions noted are these: 7 to 51 µM protein, preincubation with 488 µM compound; not shown. From the text: The putative reversible interaction between SmSOD and ALS-31 was further investigated through the behaviour of this enzyme in gel electrophoresis. […] Therefore, the reversible and non-covalent interaction between SmSOD and ALS-31 allowed the disassemblage of the enzyme and consequently its inhibition, only when a proper concentration of the inhibitor remained in contact with the enzyme.

The subject of assay [2] is Streptococcus mutans ATCC-700610. As to the kind of experiment: Crystal violet staining biofilm biomass assay. The class given is cell-based. The conditions noted are these: 24 h. How it is done: The bacterial strain used for antimicrobial assays was Streptococcus mutans ATCC-700610. The strain was stored in 15% (v/v) glycerol stocks at −80 °C. Before each experiment, cells were subcultured from the stocks into Trypticase Soy Agar (TSA, cat. PA-254051.06) with 5% Sheep Blood (Becton Dickinson, Sparks, NV, USA) plates at 37 °C in 5% CO2 atmosphere for 48 h.
The crystal violet (CV) staining method was used to measure biofilm biomass formed in flat-bottomed 96-well microplates in the presence of ALS-31 or ALS-31-9, as described by Stepanović et al., with some modifications. A bacterial suspension of approximately 1.5 × 10^6 CFU/mL in BHI supplemented with 1% (w/v) glucose was prepared, and 100-µL aliquots of this suspension were incubated with 100 µL of serial dilutions of each compound. The microplate was incubated at 37 °C for 24 h, after which the non-adherent cells were gently aspirated and the wells gently rinsed with PBS (Sigma–Aldrich). The adhered biofilm was dried at 60 °C for 30 min and subsequently stained with 0.1% (w/v) crystal violet solution for 30 min. After washing with PBS and solubilization with absolute ethanol to release the dye from the biofilm, the plate was read at 570 nm in a spectrophotometer. The absorbance recorded was related to the amount of biofilm produced. The reduction in the mass of the biofilm was expressed as a percentage by using the formula [(Ac-At)/Ac] × 100, where Ac is the OD570 for the control wells and At is the OD570 in the presence of the tested compound.

T2 sequence (P09738 2-203): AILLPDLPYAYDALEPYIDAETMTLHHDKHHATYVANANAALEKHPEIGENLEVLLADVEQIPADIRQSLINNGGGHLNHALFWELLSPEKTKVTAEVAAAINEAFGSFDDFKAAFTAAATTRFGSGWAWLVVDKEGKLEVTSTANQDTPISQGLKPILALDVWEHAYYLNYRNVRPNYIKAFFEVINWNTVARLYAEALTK
T1 sequence (P00442 whole entry): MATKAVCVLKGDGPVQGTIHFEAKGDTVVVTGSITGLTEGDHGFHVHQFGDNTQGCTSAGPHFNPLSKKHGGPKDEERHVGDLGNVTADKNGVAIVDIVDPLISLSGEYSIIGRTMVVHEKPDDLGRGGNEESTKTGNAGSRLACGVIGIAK

As to `CSCCC(NC(=O)COc1ccc2c3c(c(=O)oc2c1)CCCC3)C(=O)NCCC(=O)O` (stereo not shown) [ALS-31], the IC50 in assay [1] was 146 ± 25 µM. Also, at SmSOD, the “electrophoretic mobility of SmSOD” value is given as “no change”. For the same compound, the inhibition at 52.5 µM in assay [2] (Streptococcus mutans, ATCC700610, 52.5 µM, read-out: inhibition of biofilm biomass formation) is 68.2%. Further, the “effect on biofilm formation” value in assay [2] (serial dilutions from 52.5 µM) is recorded as “no effects”.
